PubChem BioAssay (NCI)
Values joined by “and” are separate entries in the source; they are usually repeats but may differ in a detail not shown here. Identical values can stand only once.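 Growth conditions: 96-well plates. Treatment: test compound, 48 hours, 5 concentrations. Analysis: linear interpolation between bracketing concentrations; unreached endpoints set to highest concentration. At the GI50, growth is halved. TGI denotes the concentration required for complete inhibition of growth.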

Assays:
Experiment in all cases: NCI anticancer screen, dose series, 48 h
[1] = system: HCT-116 colon
[2] = system: T-47D breast
[3] = system: COLO 205 colon
[4] = system: UACC-62 melanoma
[5] = system: SR leukemia
[6] = system: A549 NSCLC
[7] = system: CCRF-CEM leukemia
[8] = system: K-562 leukemia
[9] = system: HOP-92 NSCLC
[10] = system: CAKI-1 renal

Compound	GI50 [1]	TGI [1]	GI50 [2]	TGI [2]	GI50 [3]	TGI [3]	GI50 [4]	TGI [4]	GI50 [5]	TGI [5]	GI50 [6]	TGI [6]	GI50 [7]	TGI [7]	GI50 [8]	TGI [8]	GI50 [9] [µM]	TGI [9]	GI50 [10]	TGI [10]
CCNC(=O)Oc1ccc(/C(=C(\C)c2ccc(Cl)cc2)c2ccc(OCCN(CC)CC)cc2)cc1	2.04 µM	4.86 µM	2.16 µM	12.5 µM	1.94 µM	3.94 µM	2.07 µM	4 µM	2.55 µM	10.7 µM	5.63 µM	18.4 µM	3.38 µM	12.2 µM	2.18 µM	5.37 µM	3.16	12.6 µM	–	–
COc1cc(-c2cc(-c3cccs3)c(C#N)c(N3CCOCC3)n2)cc(OC)c1OC	4.14 µM	> 100 µM	3.32 µM	> 85.3 µM	2.3 µM	6.62 µM	7.57 µM	> 100 µM	1.93 µM	8.11 µM	44.1 µM	> 100 µM	5.66 µM	> 100 µM	3.8 µM	> 100 µM	4.73	> 100 µM	> 21.6 µM	> 100 µM
CC(=O)OC1CC2C(C)(C)CCC[C@]2(C)C2=C1C(O)=C(C(C)C)C(=O)C2=O (some centres not stated)	0.499 µM	1.99 µM	0.739 µM	4.98 µM	1.47 µM	3.33 µM	0.323 µM	1.42 µM	0.39 µM	2.11 µM	0.521 µM	3.01 µM	1.12 µM	7.03 µM	0.919 µM	> 100 µM	0.123	0.547 µM	0.567 µM	2.9 µM
CS(=O)(=O)O[C@H]1C(=O)N(c2cc3c4ccccc4ccc3c3ccccc23)[C@@H]1c1ccccn1	0.372 µM	23 µM	0.44 µM	> 100 µM	0.398 µM	1.95 µM	0.347 µM	> 100 µM	0.384 µM	> 100 µM	0.665 µM	> 100 µM	0.515 µM	> 100 µM	–	–	0.395	56.3 µM	0.413 µM	> 100 µM
CC(=O)N(C)c1cc(NCc2ccccc2)ccc1OCc1ccccc1	–	> 100 µM	–	> 100 µM	–	54.8 µM	–	31.8 µM	–	32.8 µM	–	36.7 µM	–	45 µM	–	63.5 µM	–	30 µM	–	38.6 µM
C=C1C[C@@H](O)[C@@H](Br)C(C)(C)[C@]12CCC(C)(Br)C(Cl)C2 (some centres not stated)	19.3 µM	> 50 µM and 36.2 µM	19 µM	> 50 µM and 49.3 µM	0.627 µM	1.71 µM and 2.09 µM	15.6 µM	> 50 µM and 29.3 µM	18.9 µM	> 50 µM and 37.2 µM	16.7 µM	> 50 µM and 37.7 µM	1.05 µM	> 50 µM and 14.4 µM	19.2 µM	> 50 µM and 42.4 µM	20.3	> 50 µM and 39.3 µM	18.3 µM	> 50 µM and 37.2 µM
C=C[C@H]1CN2CCc3c([nH]c4c([C@@H]5CCCN5C)c(O)ccc34)[C@@H]2C[C@@H]1C[C@H]1c2[nH]c3ccccc3c2CCN1C	1.13 µM	2.68 µM and 1.48 µM	–	3.26 µM and 3.91 µM	–	3.09 µM and 2.64 µM and 3.04 µM	–	3.28 µM	0.161 µM and 0.197 µM	520 nM [middle of 4 runs]	–	3.12 µM and 3.13 µM	0.484 µM and 0.475 µM	–	–	–	–	2.76 µM and 2.91 µM	–	3 µM and 3.23 µM
O=C(Nc1ccn(C2CC(I)C(COC(c3ccccc3)(c3ccccc3)c3ccccc3)O2)c(=O)n1)c1ccccc1 (configuration not stated)	–	12.2 µM	–	21.5 µM	–	12.8 µM	–	15.4 µM	–	2.15 µM	–	21.5 µM	–	17.3 µM	–	21.5 µM	–	13.2 µM	–	21.5 µM
O=C(O)c1ccc(NCc2nc3ccccc3[nH]2)cc1	> 100 µM	> 100 µM	> 100 µM	> 100 µM	> 100 µM	> 100 µM	> 100 µM	> 100 µM	> 100 µM	> 100 µM	> 100 µM	> 100 µM	> 100 µM	> 100 µM	> 100 µM	> 100 µM	> 100	> 100 µM	> 100 µM	> 100 µM
O=C(Nc1ccc(Oc2ccc(NC(=O)Nc3ccccc3Cl)cc2)cc1)Nc1ccccc1Cl	1.59 µM	> 100 µM	6.98 µM	> 90.6 µM	15.7 µM	> 100 µM	7.42 µM	> 62 µM	0.453 µM	13.3 µM	2.69 µM	> 26.1 µM	4.72 µM	28.8 µM	2.63 µM	> 40.1 µM	1.34	9.53 µM	> 31.9 µM	> 88.2 µM
COc1ccc2nc3cc(Cl)ccc3c(NCCNCC(O)CO)c2c1 (configuration not stated)	0.391 µM	2.83 µM	1.4 µM	6.86 µM	0.622 µM	2.41 µM	1.55 µM	4.01 µM	0.597 µM	10.8 µM	3.33 µM	14.1 µM	1.69 µM	13.8 µM	0.807 µM	10.2 µM	2.8	7.18 µM	5.79 µM	20.3 µM
Cc1cc(O[C@@H]2O[C@@H](C)[C@H](O)[C@@H](O)[C@H]2O)c2c3c(c(O[C@@H]4O[C@@H](C)[C@H](O)[C@@H](O)[C@H]4O)cc2c1)C(=O)c1c(O)cccc1C3=O	> 30 µM	> 30 µM	> 30 µM	> 30 µM	> 30 µM	> 30 µM	> 30 µM	> 30 µM	> 30 µM	> 30 µM	> 30 µM	> 30 µM	> 30 µM	> 30 µM	> 30 µM	> 30 µM	> 30	> 30 µM	–	–
CCC(CC)c1cc(N[C@H]2CC[C@H](N)C2)n2nccc2n1	0.402 µM	> 100 µM	0.759 µM	> 100 µM	0.732 µM	2.41 µM	1.45 µM	3.46 µM	0.332 µM	> 100 µM	0.511 µM	> 100 µM	1.08 µM	> 100 µM	0.642 µM	> 100 µM	3.56	> 100 µM	0.423 µM	> 100 µM
CC1NC(C(=O)O)Cc2cc(O)c(O)cc21 (configuration not stated)	–	> 100 µM	–	> 100 µM	–	> 100 µM	–	> 100 µM	–	> 100 µM	–	> 100 µM	–	> 100 µM	–	–	–	> 100 µM	–	> 100 µM
COC1=CC(c2ccc[nH]2)=N/C1=C\c1[nH]c(C)c(C(=O)Oc2ccccc2)c1C	0.0427 µM	1.17 µM	0.403 µM	1.8 µM	0.345 µM	1.43 µM	0.198 µM	0.427 µM	0.2 µM	1.11 µM	0.344 µM	2.01 µM	0.0625 µM	> 100 µM	0.292 µM	> 100 µM	0.189	0.564 µM	0.0679 µM	–
NC(=O)c1cc(I)ccc1NC(=O)/C=C/c1ccccc1Cl	0.465 µM	11.9 µM	3.13 µM	> 90.8 µM	0.651 µM	5.7 µM	0.312 µM	48.7 µM	0.26 µM	0.952 µM	1.18 µM	25.2 µM	0.363 µM	–	0.313 µM	3.43 µM	7.22	36.4 µM	0.405 µM	3.78 µM
Cc1cc(I)cc(CNCCN2CCOCC2)c1O	37.2 µM	> 100 µM	84.8 µM	> 100 µM	> 100 µM	> 100 µM	> 100 µM	> 100 µM	90.2 µM	> 100 µM	> 100 µM	> 100 µM	–	–	87.5 µM	> 100 µM	59.8	> 100 µM	> 100 µM	> 100 µM
O=C(NCCCl)NCCN1c2nc3ccccc3cc2Sc2cc3ccccc3nc21	0.8 µM	3.43 µM	2.04 µM	12 µM	1.32 µM	2.66 µM	1.62 µM	18.2 µM	–	> 23.3 µM	4.64 µM	23.1 µM	0.3 µM	3.62 µM	2.14 µM	> 25 µM	0.722	7.47 µM	14.7 µM	> 55.3 µM
CN(C)c1ccc(/C=C(\C#N)c2ccccc2)cc1	0.384 µM and 0.441 µM and 0.414 µM	> 60.6 µM and > 100 µM and 29.6 µM	0.446 µM and 0.534 µM and 0.473 µM	> 100 µM	0.384 µM and 0.42 µM and 0.353 µM	2.32 µM and 5.35 µM and 2.76 µM	0.312 µM and 0.36 µM and 0.52 µM	> 100 µM	0.0866 µM and 0.308 µM and 0.255 µM	19 µM and 37.6 µM	0.73 µM and 0.796 µM and 0.691 µM	> 100 µM	0.332 µM and 0.553 µM and 0.595 µM	13.4 µM and > 100 µM	0.194 µM and 0.337 µM and 0.35 µM	> 100 µM	–	–	0.244 µM and 0.586 µM and 0.591 µM	–
Cc1ccc(/C=C(/C#N)n2nnc3ncccc32)cc1	2.2 µM	11.1 µM	1.92 µM	15.8 µM	2.25 µM	10.5 µM	3.2 µM	15.8 µM	0.765 µM	26.8 µM	2.58 µM	77.5 µM	3.08 µM	> 100 µM	0.545 µM	> 100 µM	1.82	6.19 µM	–	–
O=C1Nc2ccc(O)cc2/C1=C\c1ccncc1	14.7 µM	39.9 µM	26.9 µM	> 100 µM	26.3 µM	64.8 µM	12.2 µM	26.4 µM	3.75 µM	17.8 µM	26.2 µM	82.8 µM	–	–	17.7 µM	56.2 µM	31.2	> 100 µM	17.9 µM	54.2 µM
C/C=C(\C)c1cc(=O)c2c(C)cc3c(c2o1)C(OC)(OC(C)=O)c1c(O)c(C2CC(C)(N(C)C)C(OC(C)=O)C(C)O2)cc(C2CC(N(C)C)C(OC(C)=O)C(C)O2)c1C3=O (configuration not stated)	–	> 34.1 µM	–	17.6 µM	–	–	–	–	–	0.842 µM	–	> 100 µM	–	10.1 µM	–	–	–	6.91 µM	–	9.39 µM
O=C(CN1CCN(CCN2C(=O)c3cccc4cccc(c34)C2=O)CC1)Nc1ccc2ncsc2c1	3.57 µM	16.4 µM	5.12 µM	30.5 µM	5.44 µM	54.6 µM	6.61 µM	22.4 µM	1.38 µM	41.2 µM	3.58 µM	15.4 µM	5.4 µM	53 µM	–	–	5.24	> 100 µM	4.91 µM	> 100 µM
[N-]=[N+]=NCCCn1c2c(c3ccc([N+](=O)[O-])cc3c1=O)C(=O)c1cc(I)ccc1-2	2.15 µM	26.4 µM	3.87 µM	> 100 µM	40.4 µM	> 100 µM	3.33 µM	18.3 µM	0.344 µM	2.87 µM	8.06 µM	> 100 µM	0.416 µM	> 100 µM	5.15 µM	> 100 µM	–	–	9.38 µM	> 100 µM
C[C@]12CCCN1CC1=NNC(=O)c3cc(F)cc4[nH]c2c1c34	14.2 µM	> 100 µM	20.6 µM	91.9 µM	14.6 µM	40.6 µM	12.7 µM	28.3 µM	3.57 µM	> 100 µM	22.4 µM	> 100 µM	22.5 µM	81 µM	–	–	2.71	20.7 µM	7.73 µM	> 100 µM
O=C(/C=C/c1ccco1)Nc1ncc(Cc2cccc(C(F)(F)F)c2)s1	0.0438 µM	> 32.8 µM	0.12 µM	> 92.2 µM	0.0433 µM	0.166 µM	0.0545 µM	24.6 µM	0.0334 µM	3.67 µM	0.113 µM	> 36.4 µM	0.0682 µM	> 47.8 µM	0.0361 µM	> 33.8 µM	–	–	0.0464 µM	7.93 µM
c1ccc(COCC[P+](c2ccccc2)(c2ccccc2)c2ccccc2)cc1	0.679 µM	12.5 µM	0.259 µM	21.6 µM	0.868 µM	3.65 µM	–	–	0.725 µM	11 µM	0.584 µM	10.1 µM	1.36 µM	14.1 µM	0.383 µM	16 µM	–	–	5.4 µM	23.1 µM
